The target in the assay is wild-type human cardiac sodium channel, hNav1.5 (late sodium current) in HEK293 cells (Homo sapiens, UniProt Q14524). Put plainly: Late INa screening assay (automated whole-cell patch clamp, PatchXpress). The format is cell-based. The settings on record: HEK293, compound at 1 μM; late INa generated with 10 μM Tefluthrin (or 50 nM ATX II); HEK293 hNav1.5; read-out: Late INa 1 μM (percent block of late INa). In short, it runs like this:
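hNav1.5-expressing HEK293 cells (no β subunits) were recorded by automated whole-cell patch clamp at 24–27 °C with CsF-based internal solution. Late current was induced by 10 μM tefluthrin (or 50 nM ATX II) and evoked by 250 ms steps from −120 to −20 mV at 0.1 Hz. Compounds, typically 10 μM, were applied in three additions over 7–8 min; mean current at 225–250 ms, normalised to 0Na baseline, gave percent block.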
(In general: Patch clamp records ionic current or voltage across a cell membrane.)

Chain of wild-type human cardiac sodium channel, hNav1.5 (late sodium current) in HEK293 cells (Q14524 whole entry): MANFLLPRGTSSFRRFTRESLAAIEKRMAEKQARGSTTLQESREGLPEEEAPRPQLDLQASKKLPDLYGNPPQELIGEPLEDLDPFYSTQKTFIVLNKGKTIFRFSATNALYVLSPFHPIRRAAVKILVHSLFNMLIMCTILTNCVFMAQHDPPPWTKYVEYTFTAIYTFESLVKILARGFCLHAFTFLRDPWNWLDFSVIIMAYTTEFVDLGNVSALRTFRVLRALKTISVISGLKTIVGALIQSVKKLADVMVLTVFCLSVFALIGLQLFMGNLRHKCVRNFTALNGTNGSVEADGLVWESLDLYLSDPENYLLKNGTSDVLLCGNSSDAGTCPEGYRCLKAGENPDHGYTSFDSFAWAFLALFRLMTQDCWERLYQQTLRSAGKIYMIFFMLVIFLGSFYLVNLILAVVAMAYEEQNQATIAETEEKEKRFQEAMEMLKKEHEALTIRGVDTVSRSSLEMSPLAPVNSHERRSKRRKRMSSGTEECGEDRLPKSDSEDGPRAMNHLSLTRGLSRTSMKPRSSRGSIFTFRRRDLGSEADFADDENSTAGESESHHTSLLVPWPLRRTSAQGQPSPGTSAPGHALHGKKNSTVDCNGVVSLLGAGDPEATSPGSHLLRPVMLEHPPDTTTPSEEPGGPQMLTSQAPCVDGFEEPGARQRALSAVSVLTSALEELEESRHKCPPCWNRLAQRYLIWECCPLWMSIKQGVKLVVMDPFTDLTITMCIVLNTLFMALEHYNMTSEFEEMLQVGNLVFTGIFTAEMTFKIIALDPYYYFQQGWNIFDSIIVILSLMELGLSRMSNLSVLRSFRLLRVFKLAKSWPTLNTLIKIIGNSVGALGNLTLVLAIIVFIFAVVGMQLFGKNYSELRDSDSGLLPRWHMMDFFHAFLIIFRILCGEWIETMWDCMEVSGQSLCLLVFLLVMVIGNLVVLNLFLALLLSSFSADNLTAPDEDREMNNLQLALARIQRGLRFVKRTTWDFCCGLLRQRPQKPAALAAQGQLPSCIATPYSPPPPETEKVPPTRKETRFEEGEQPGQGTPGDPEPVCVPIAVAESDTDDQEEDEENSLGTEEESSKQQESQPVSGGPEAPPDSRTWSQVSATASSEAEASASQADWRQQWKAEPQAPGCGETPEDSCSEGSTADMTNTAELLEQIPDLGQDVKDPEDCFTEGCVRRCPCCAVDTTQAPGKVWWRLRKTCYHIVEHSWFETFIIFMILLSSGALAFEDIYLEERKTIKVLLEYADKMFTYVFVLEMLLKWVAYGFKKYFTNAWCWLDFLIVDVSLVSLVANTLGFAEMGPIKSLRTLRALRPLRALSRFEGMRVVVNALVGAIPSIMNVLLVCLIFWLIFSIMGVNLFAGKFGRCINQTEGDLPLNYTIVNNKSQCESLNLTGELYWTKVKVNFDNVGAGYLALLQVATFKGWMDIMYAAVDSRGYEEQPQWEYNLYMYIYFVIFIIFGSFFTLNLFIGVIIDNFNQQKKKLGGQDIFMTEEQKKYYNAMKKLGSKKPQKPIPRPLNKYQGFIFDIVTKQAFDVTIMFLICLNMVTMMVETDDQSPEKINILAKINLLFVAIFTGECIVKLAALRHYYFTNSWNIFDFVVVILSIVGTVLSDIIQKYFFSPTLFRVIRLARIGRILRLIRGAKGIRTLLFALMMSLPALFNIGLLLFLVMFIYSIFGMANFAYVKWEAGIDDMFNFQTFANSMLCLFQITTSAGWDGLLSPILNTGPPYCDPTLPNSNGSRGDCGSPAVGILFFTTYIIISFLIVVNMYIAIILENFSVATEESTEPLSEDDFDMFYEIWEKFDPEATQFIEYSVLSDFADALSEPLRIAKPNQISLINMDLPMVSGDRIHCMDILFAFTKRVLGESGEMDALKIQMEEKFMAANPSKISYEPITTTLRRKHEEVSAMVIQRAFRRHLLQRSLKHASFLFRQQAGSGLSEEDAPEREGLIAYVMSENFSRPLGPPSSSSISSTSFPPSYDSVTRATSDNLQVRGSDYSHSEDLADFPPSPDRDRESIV

Take `CC(C)(C)c1cnc(Cn2nc3ccc(-c4ccc(C(F)(F)F)cc4)cn3c2=O)o1` [compound 184, 2-((5-tert-butyloxazol-2-yl)methyl)-6-(4-(trifluoromethyl)phenyl)-[1,2,4]triazolo[4,3-a]pyridin-3(2H)-one]: the inhibition at 1 µM was found to be 18.9%.
`Cn1nc2ccc(-c3ccc(C(F)(F)F)cc3)cn2c1=O` [compound 185, 2-methyl-6-(4-(trifluoromethyl)phenyl)-[1,2,4]triazolo[4,3-a]pyridin-3(2H)-one]: the inhibition at 1 µM came to 10.1%.
Consider `O=c1n(CCN2CC[C@@H](Oc3ccc(F)cc3)C2)nc2ccc(-c3ccc(OC(F)(F)F)cc3)cn12` [compound 186, (R)-2-(2-(3-(4-fluorophenoxy)pyrrolidin-1-yl)ethyl)-6-(4-(trifluoromethoxy)phenyl)-[1,2,4]triazolo[4,3-a]pyridin-3(2H)-one], for which the inhibition at 1 µM is 37.3%.
Turning to `Cc1c(-c2ccc(OC(F)(F)F)cc2)ccc2n[nH]c(=O)n12` [compound 187, 5-methyl-6-(4-(trifluoromethoxy)phenyl)-[1,2,4]triazolo[4,3-a]pyridin-3(2H)-one], the inhibition at 1 µM was 29.8%.
For `Cc1noc(Cn2nc3ccc(-c4ccc(OC(F)(F)F)cc4)c(C)n3c2=O)n1` [compound 188, 5-methyl-2-((3-methyl-1,2,4-oxadiazol-5-yl)methyl)-6-(4-(trifluoromethoxy)phenyl)-[1,2,4]triazolo[4,3-a]pyridin-3(2H)-one], the inhibition at 1 µM is 17.3%.
Regarding `O=c1n(CC(F)(F)F)nc2ccc(-c3ccc(OC(F)(F)F)cc3)cn12` [compound 189, 2-(2,2,2-trifluoroethyl)-6-(4-(trifluoromethoxy)phenyl)-[1,2,4]triazolo[4,3-a]pyridin-3(2H)-one], the inhibition at 1 µM amounted to 15.3%.
Regarding `CC(C)n1nc2ccc(-c3ccc(OC(F)(F)F)cc3)cn2c1=O` [compound 190, 2-isopropyl-6-(4-(trifluoromethoxy)phenyl)-[1,2,4]triazolo[4,3-a]pyridin-3(2H)-one], the inhibition at 1 µM worked out at 17.6%.
Turning to `Cc1coc(Cn2nc3ccc(-c4ccc(OC(F)(F)F)cc4)cn3c2=O)n1` [compound 191, 2-((4-methyloxazol-2-yl)methyl)-6-(4-(trifluoromethoxy)phenyl)-[1,2,4]triazolo[4,3-a]pyridin-3(2H)-one], the inhibition at 1 µM stood at 28.9%.
In the case of `Cc1coc(Cn2nc3ccc(-c4ccc(C(F)(F)F)cc4)cn3c2=O)n1` [compound 192, 2-((4-methyloxazol-2-yl)methyl)-6-(4-(trifluoromethyl)phenyl)-[1,2,4]triazolo[4,3-a]pyridin-3(2H)-one], the inhibition at 1 µM came out at 34.4%.
For the molecule `O=c1n(Cc2nc(C3CC3)co2)nc2ccc(-c3ccc(OC(F)(F)F)cc3)cn12` [compound 193, 2-((4-cyclopropyloxazol-2-yl)methyl)-6-(4-(trifluoromethoxy)phenyl)-[1,2,4]triazolo[4,3-a]pyridin-3(2H)-one], the inhibition at 1 µM turned out to be 33.8%.
With `O=c1n(Cc2nc(C3CC3)co2)nc2ccc(-c3ccc(C(F)(F)F)cc3)cn12` [compound 194, 2-((4-cyclopropyloxazol-2-yl)methyl)-6-(4-(trifluoromethyl)phenyl)-[1,2,4]triazolo[4,3-a]pyridin-3(2H)-one], the inhibition at 1 µM was 21.6%.
Turning to `Cc1cnc(Cn2nc3ccc(-c4ccc(Cl)cc4)cn3c2=O)o1` [compound 195, 6-(4-chlorophenyl)-2-((5-methyloxazol-2-yl)methyl)-[1,2,4]triazolo[4,3-a]pyridin-3(2H)-one], the inhibition at 1 µM was 31.2%.
Turning to `Cc1cc(-c2ccc(OC(F)(F)F)cc2)cn2c(=O)[nH]nc12` [compound 196, 8-methyl-6-(4-(trifluoromethoxy)phenyl)-[1,2,4]triazolo[4,3-a]pyridin-3(2H)-one], the inhibition at 1 µM was 38.3%.
On to `Cc1ncc(Cn2nc3ccc(-c4ccc(C(F)(F)F)cc4)cn3c2=O)o1` [compound 197, 2-((2-methyloxazol-5-yl)methyl)-6-(4-(trifluoromethyl)phenyl)-[1,2,4]triazolo[4,3-a]pyridin-3(2H)-one], for which the inhibition at 1 µM amounted to 19.7%.
Turning to `COc1cc(Cl)c(Cl)cc1OCC(O)Cn1nc2ccc(-c3ccc(C(F)(F)F)cc3)cn2c1=O` (stereo not drawn) [compound 198, 2-(3-(4,5-dichloro-2-methoxyphenoxy)-2-hydroxypropyl)-6-(4-(trifluoromethyl)phenyl)-[1,2,4]triazolo[4,3-a]pyridin-3(2H)-one], the inhibition at 1 µM was 14.8%.
Regarding `O=c1n(Cc2ncc(C3CC3)o2)nc2ccc(-c3ccc(OC(F)(F)F)cc3)cn12` [compound 199, 2-((5-cyclopropyloxazol-2-yl)methyl)-6-(4-(trifluoromethoxy)phenyl)-[1,2,4]triazolo[4,3-a]pyridin-3(2H)-one], the inhibition at 1 µM came to 22.5%.
In the case of `O=c1[nH]nc2ccc(-c3ccc(OC(F)(F)F)cc3)cn12` [compound 200, 6-(4-(trifluoromethoxy)phenyl)-[1,2,4]triazolo[4,3-a]pyridin-3(2H)-one] it was 26.5%; in that of `Cn1nc2ccc(-c3ccc(OC(F)(F)F)cc3)cn2c1=O` [compound 201, 2-methyl-6-(4-(trifluoromethoxy)phenyl)-[1,2,4]triazolo[4,3-a]pyridin-3(2H)-one], 38.7%.

These data come from patent publication US9079901B2, “Fused heterocyclic compounds as ion channel modulators” (Gilead Sciences, Inc., priority 2010, dated 2015).
